Data published in patent US9656959B2, “Substituted pyridines as sodium channel blockers” (Purdue Pharma L.P., priority 2010, dated 2017).
Like-named read-outs stand apart in the source and are kept apart here.

Tests used:
[1] = target: human Nav1.7 (Homo sapiens (Human), UniProt Q15858); assay: FLIPR or FLIPR TETRA sodium dye assay with KCl and test article pre-incubation; type: cell-based
[2] = target: hNav1.7 (Homo sapiens (Human), UniProt Q15858); assay: Electrophysiology (EP) assay, whole-cell patch clamp; type: cell-based; conditions: hNav1.7 HEK-293 cells; for Ki: affinity for the inactivated state of the channel, read-out: Nav1.7 Activity (μM) EP assay Ki; for Kd: resting block dissociation constant, read-out: Nav1.7 Activity (μM) EP assay Kr
Protocol: The hNav1.7 expressing HEK-293 cells were plated on 35 mm culture dishes pre-coated with poly-D-lysine in standard DMEM culture media (Mediatech, Inc., Herndon, Va.) and incubated in a 5% CO2 incubator at 37° C. Cultured cells were used approximately 12-48 hours after plating.
On the day of experimentation, the 35 mm dish was placed on the stage of an inverted microscope equipped with a perfusion system that continuously perfuses the culture dish with fresh recording media. A gravity driven superfusion system was used to apply test solutions directly to the cell under evaluation. This system consists of an array of glass pipette connected to a motorized horizontal translator. The outlet of the shooter was positioned approximately 100 μm from the cell of interest.
Whole cell currents were recorded using the whole-cell patch clamp configuration using an Axopatch 200B amplifier (Axon Instruments, Foster City Calif.), 1322A A/D converter (Axon Instruments) and pClamp software (v. 8; Axon Instruments) and stored on a personal computer. Gigaseals were formed and the whole-cell configuration was established in voltage clamp mode, and membrane currents generated by hNav1.7 were recorded in gap-free mode. Borosilicate glass pipettes have resistance values between 1.5 and 2.0 MΩ when filled with pipette solution and series resistance (<5 MΩ) was compensated 75-80%. Signals were sampled at 50 kHz and low pass filtered at 3 kHz.
After establishing the whole-cell configuration in voltage clamp mode, voltage protocols were run to establish the 1) test potential, 2) holding potential, and 3) the conditioning potential for each cell.
After establishing the whole-cell configuration in voltage clamp mode, a standard I-V protocol was run to determine the potential at which the maximal current (Imax) is elicited. This potential was the test potential (Vt). […] This protocol also permitted determination of the holding potential at which all channels are in the resting state.
For compounds causing significant retardation of recovery from inactivation, an estimate of the affinity for the inactivated state of the channel (Ki) was generated using the following protocol. From the negative, no residual inactivation, holding potential, the cell was depolarized to the conditioning voltage for 2-5 seconds, returned to the negative holding potential for 10-20 ms to relieve fast inactivation and then depolarized to the test potential for ˜15 ms. This voltage protocol was repeated every 10-15 seconds, first to establish a baseline in the absence of the test compound, then in the presence of the test compound.
After a stable baseline was established, the test compound was applied and block of the current elicited by the test pulse assessed. In some cases, multiple cumulative concentrations were applied to identify a concentration that blocked between 40-60% of this current. Washout of the compound was attempted by superfusing with control solution once steady-state block was observed. An estimate of the K, was calculated as follows: Ki=[drug]*{FR/(1−FR)}, Eq. 1
where [drug] is the concentration of a drug, and FR=I(after drug)/I(control), Eq. 2 where I is the peak current amplitude. If multiple concentrations were used, Ki was determined from the fit of a logistic equation to FRs plotted against corresponding drug concentrations.
In the alternative, the voltage clamp protocol to examine hNav1.7 currents was as follows. First, the standard current-voltage relationship was tested by pulsing the cell from the holding voltage (Vh) of −120 mV by a series of 5 msec long square-shaped test pulses incrementing in +10 mV steps over the membrane voltage range of −90 mV to +60 mV at the pace of stimulation of 0.5 Hz. This procedure determines the voltage that elicits the maximal current (Vmax). […]

[3] = recombinant Nav1.7/HEK293 cells, CoroNa Green sodium dye, veratridine + scorpion venom agonists, ± SEM
[4] = read-out: Nav1.7 Activity (μM) FLIPR assay IC50 (μM) ± SEM

Chain of human Nav1.7 (Q15858 with tags, fused parts or gaps limits assumed): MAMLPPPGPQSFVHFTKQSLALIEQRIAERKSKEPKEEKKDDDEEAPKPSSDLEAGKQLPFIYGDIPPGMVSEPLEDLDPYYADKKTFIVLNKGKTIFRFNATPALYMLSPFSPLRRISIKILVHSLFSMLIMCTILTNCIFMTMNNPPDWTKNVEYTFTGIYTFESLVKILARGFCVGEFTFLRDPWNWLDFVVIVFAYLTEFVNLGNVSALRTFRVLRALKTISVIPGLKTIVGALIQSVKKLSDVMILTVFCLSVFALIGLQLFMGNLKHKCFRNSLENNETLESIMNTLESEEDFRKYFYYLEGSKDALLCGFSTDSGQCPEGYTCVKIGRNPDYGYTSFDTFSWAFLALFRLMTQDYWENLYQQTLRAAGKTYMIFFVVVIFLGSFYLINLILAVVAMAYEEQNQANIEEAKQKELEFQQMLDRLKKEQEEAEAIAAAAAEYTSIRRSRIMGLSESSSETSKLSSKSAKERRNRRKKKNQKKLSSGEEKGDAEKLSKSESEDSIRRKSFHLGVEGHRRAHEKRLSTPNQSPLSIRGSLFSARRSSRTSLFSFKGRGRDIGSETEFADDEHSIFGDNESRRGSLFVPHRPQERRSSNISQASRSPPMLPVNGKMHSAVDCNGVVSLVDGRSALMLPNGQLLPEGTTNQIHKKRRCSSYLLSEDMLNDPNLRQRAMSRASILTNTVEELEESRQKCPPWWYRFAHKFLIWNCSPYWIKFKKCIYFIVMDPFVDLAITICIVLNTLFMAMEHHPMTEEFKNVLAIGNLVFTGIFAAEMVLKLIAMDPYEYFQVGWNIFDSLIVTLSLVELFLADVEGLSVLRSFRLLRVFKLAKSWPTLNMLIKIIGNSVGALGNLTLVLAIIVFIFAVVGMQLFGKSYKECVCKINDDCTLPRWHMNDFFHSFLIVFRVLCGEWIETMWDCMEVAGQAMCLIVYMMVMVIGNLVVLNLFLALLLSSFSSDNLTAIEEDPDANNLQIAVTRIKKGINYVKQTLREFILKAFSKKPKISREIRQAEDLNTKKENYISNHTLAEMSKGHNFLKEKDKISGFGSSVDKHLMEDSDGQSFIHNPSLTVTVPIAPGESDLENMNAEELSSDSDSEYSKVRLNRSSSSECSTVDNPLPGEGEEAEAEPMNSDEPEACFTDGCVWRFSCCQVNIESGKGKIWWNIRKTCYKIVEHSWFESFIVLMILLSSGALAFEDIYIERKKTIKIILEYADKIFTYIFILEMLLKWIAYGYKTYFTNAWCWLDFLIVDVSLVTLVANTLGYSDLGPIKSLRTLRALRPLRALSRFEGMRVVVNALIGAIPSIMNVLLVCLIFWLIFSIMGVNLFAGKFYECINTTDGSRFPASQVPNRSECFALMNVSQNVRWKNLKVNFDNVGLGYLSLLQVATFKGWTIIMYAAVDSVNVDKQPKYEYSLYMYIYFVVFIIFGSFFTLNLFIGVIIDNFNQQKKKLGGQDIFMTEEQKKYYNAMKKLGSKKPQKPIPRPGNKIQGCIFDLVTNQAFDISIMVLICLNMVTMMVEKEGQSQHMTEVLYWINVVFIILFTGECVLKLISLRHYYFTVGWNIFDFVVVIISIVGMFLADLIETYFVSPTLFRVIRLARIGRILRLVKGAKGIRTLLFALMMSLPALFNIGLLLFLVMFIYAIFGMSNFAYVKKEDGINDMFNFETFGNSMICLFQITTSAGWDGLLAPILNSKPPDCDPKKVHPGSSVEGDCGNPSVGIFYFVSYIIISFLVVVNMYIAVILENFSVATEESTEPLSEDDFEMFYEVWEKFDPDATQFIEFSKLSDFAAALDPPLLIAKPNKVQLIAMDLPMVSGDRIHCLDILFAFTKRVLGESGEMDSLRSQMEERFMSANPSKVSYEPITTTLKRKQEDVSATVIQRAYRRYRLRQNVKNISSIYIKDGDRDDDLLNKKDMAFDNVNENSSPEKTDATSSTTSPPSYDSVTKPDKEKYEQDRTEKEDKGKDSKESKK
Chain of hNav1.7 (Q15858 other isoform, or with tags, fused parts or gaps): as the sequence (Q15858 with tags, fused parts or gaps limits assumed) above

Row | Structure (SMILES) | IC50 [1, 3] | Ki [2] | IC50 [1, 4] | Kd [2]
1 | CC(=O)N[C@@H](CC(C)C)C(=O)Nc1cccc(-c2ccc(Oc3ccc(F)cc3)cc2)n1 [Compound 3, (S)-2-acetamido-N-(6-(4-(4-fluorophenoxy)phenyl)pyridin-2-yl)-4-methylpentanamide] | 0.042 ± 0.02 µM | 0.194 ± 0.07 µM | – | –
2 | CC(=O)N[C@@H](Cc1ccccc1)C(=O)Nc1cccc(-c2ccc(Oc3ccc(F)cc3)cc2)n1 [Compound 4, (S)-2-acetamido-N-(6-(4-(4-fluorophenoxy)phenyl)pyridin-2-yl)-3-phenylpropanamide] | 0.064 ± 0.02 µM | 0.13 ± 0.03 µM | – | –
3 | CC(C)C[C@H](NC(=O)c1ccccn1)C(=O)Nc1cccc(-c2ccc(Oc3ccc(F)cc3)cc2)n1 [Compound 7, (S)-N-(1-((6-(4-(4-fluorophenoxy)phenyl)pyridin-2-yl)amino)-4-methyl-1-oxopentan-2-yl)picolinamide] | – | 0.059 ± 0.01 µM | 0.067 ± 0.007 µM | 18 ± 1 µM
4 | CC(C)C[C@H](NC(N)=O)C(=O)Nc1cccc(-c2ccc(Oc3ccc(F)cc3)cc2)n1 [Compound 12, (S)-N-(6-(4-(4-fluorophenoxy)phenyl)pyridin-2-yl)-4-methyl-2-ureidopentanamide] | 0.096 ± 0.004 µM | 0.257 ± 0.06 µM | – | 5.06 µM
5 | CC(C)C[C@H](NC(=O)NC(C)(C)C)C(=O)Nc1cccc(-c2ccc(Oc3ccc(F)cc3)cc2)n1 [Compound 13, (S)-2-(3-(tert-butyl)ureido)-N-(6-(4-(4-fluorophenoxy)phenyl)pyridin-2-yl)-4-methylpentanamide] | 0.075 ± 0.017 µM | 0.075 ± 0.02 µM | – | 10.2 ± 0.2 µM
6 | CC(=O)N[C@@H](Cc1c[nH]cn1)C(=O)Nc1cccc(-c2ccc(Oc3ccc(F)cc3)cc2)n1 [Compound 32, (S)-2-acetamido-N-(6-(4-(4-fluorophenoxy)phenyl)pyridin-2-yl)-3-(1H-imidazol-4-yl)propanamide] | – | 0.025 µM | 0.086 ± 0.02 µM | 0.58 ± 0.1 µM
7 | O=C(N[C@@H](Cc1c[nH]cn1)C(=O)Nc1cccc(-c2ccc(Oc3ccc(F)cc3)cc2)n1)C1CC1 [Compound 33, (S)-N-(1-((6-(4-(4-fluorophenoxy)phenyl)pyridin-2-yl)amino)-3-(1H-imidazol-4-yl)-1-oxopropan-2-yl)cyclopropanecarboxamide] | – | 0.206 ± 0.04 µM | 0.11 ± 0.02 µM | 5.31 ± 0.56 µM
8 | CS(=O)(=O)N[C@@H](Cc1c[nH]cn1)C(=O)Nc1cccc(-c2ccc(Oc3ccc(F)cc3)cc2)n1 [Compound 38, (S)-N-(6-(4-(4-fluorophenoxy)phenyl)pyridin-2-yl)-3-(1H-imidazol-4-yl)-2-(methylsulfonamido)propanamide] | – | 0.019 ± 0.01 µM | 0.14 ± 0.03 µM | 1.2 ± 0.31 µM
9 | O=C(N[C@@H](CO)C(=O)Nc1cccc(-c2ccc(Oc3ccc(F)cc3)cc2)n1)c1cccnc1 [Compound 56, N-((S)-1-{6-[4-(4-Fluoro-phenoxy)-phenyl]-pyridin-2-ylcarbamoyl}-2-hydroxy-ethyl)-nicotinamide] | – | 0.195 ± 0.07 µM | 0.14 ± 0.05 µM | 32.2 ± 8.38 µM
10 | O=C(CO)N[C@@H](CO)C(=O)Nc1cccc(-c2ccc(Oc3ccc(F)cc3)cc2)n1 [Compound 60, (S)-N-{6-[4-(4-Fluoro-phenoxy)-phenyl]-pyridin-2-yl}-3-hydroxy-2-(2-hydroxy-acetylamino)-propionamide] | 0.46 ± 0.08 µM | 0.113 ± 0.05 µM | – | 4.94 ± 0.81 µM
11 | O=C1NCCN1CCNc1cc([C@H](O)CO)cc(-c2ccc(Oc3ccc(F)cc3)cc2)n1 [Compound 66, (S)-1-(2-((4-(1,2-dihydroxyethyl)-6-(4-(4-fluorophenoxy)phenyl)pyridin-2-yl)amino)ethyl)imidazolidin-2-one] | 5 ± 0.88 µM | 1.37 ± 0.17 µM | – | –
12 | N[C@@H](CO)C(=O)Nc1cccc(-c2ccc(Oc3ccc(F)cc3)cc2)n1 [Compound 70, (S)-2-Amino-N-{6-[4-(4-fluoro-phenoxy)-phenyl]-pridin-2-yl}-3-hydroxy-propionamide] | 0.27 ± 0.032 µM | 0.046 µM | – | 0.803 ± 0.2 µM
13 | O=C(Nc1cccc(-c2ccc(Oc3ccc(F)cc3)cc2)n1)C(O)CO (stereo not shown) [Compound 72, N-(6-(4-(4-fluorophenoxy)phenyl)pyridin-2-yl)-2,3-dihydroxypropanamide] | 0.074 µM | 0.143 ± 0.03 µM | – | 8.91 ± 1.21 µM
14 | CC(C)C[C@H](NC(=O)CO)C(=O)Nc1cccc(-c2ccc(Oc3ccc(F)cc3)cc2)n1 [Compound 90, (S)-N-(6-(4-(4-fluorophenoxy)phenyl)pyridin-2-yl)-2-(2-hydroxyacetamido)-4-methylpentanamide] | – | – | 0.07 ± 0.012 µM | –
15 | O=C(Nc1cccc(-c2ccc(Oc3ccc(C(F)(F)F)cn3)cc2)n1)C(O)CO (stereo not shown) [Compound 96, 2,3-dihydroxy-N-(6-(4-((5-(trifluoromethyl)pyridin-2-yl)oxy)phenyl)pyridin-2-yl)propanamide] | – | – | > 20 µM | –
16 | Cn1cnc2ccc(C(=O)Nc3cccc(-c4ccc(Oc5ccc(F)cc5)cc4)n3)cc21 [Compound 98, N-(6-(4-(4-fluorophenoxy)phenyl)pyridin-2-yl)-1-methyl-1H-benzo[d]imidazole-6-carboxamide] | > 20 µM | – | – | –
17 | Cn1cnc(C[C@H](NC(=O)Nc2cccc(-c3ccc(Oc4ccc(F)cc4)cc3)n2)C(N)=O)c1 [Compound 99, (S)-2-(3-(6-(4-(4-fluorophenoxy)phenyl)pyridin-2-yl)ureido)-3-(1-methyl-1H-imidazol-4-yl)propanamide] | – | – | 0.667 ± 0.162 µM | –
